{"source": "patent US5968954A", "about": "“2-aminoindan compounds as 5HT1B antagonists” (Adir et Compagnie, priority 1997, dated 1999)", "key": {"[1]": {"tested_on": "GR46611-induced hypothermia (prototype agonist 5HT1B) in the guinea-pig", "assay": "Hypothermia test in the guinea-pig", "assay_type": "in vivo", "conditions": "for ΔT° C. (at 90 minutes): mean ± s.e.m., N ≥ 6", "excerpt": "Using the hypothermia test on the guinea-pig (M. Stingle et al., J. of Pychopharmacology, 1994. 8, 14) it was possible to determine the agonist or antagonist nature of the products of the invention.\nHypothermia Test in the Guinea-Pig\nThe guinea-pigs are kept in batteries of three, with free access to food and water, for one week before entering the study. One hour before each experiment, the guinea-pigs are placed in individual cages with free access to water. They are put back in their respective batteries at the end of each experiment. The temperature measurements are carried out using a digital thermometer and a rectal probe. Each guinea-pig is weighed, its base body temperature is taken and then the compound of the present invention to be evaluated is injected i.p. or p.o. In the case of an agonist, the body temperature of each guinea-pig is taken every 30 minutes for 2 hours.\nIn the case of an antagonist, 15 minutes after its injection each guinea-pig is injected again i.p. with the prototype agonist 5HT1B : GR46611 (5 mg/kg). The temperature is then taken every 30 minutes for 2 hours.\nThe criterion used for evaluation is the difference in temperature at a given time in relation to the base temperature. For each dose of product and for each time (t30, t60, t90, t120) the mean and the standard error of the mean are calculated."}, "[2]": {"tested_on": "extracellular concentration of serotonin in frontal cortex", "assay": "Microdialysis experiment in rats (frontal cortex, extracellular serotonin)", "assay_type": "in vivo", "conditions": "rat frontal cortex, M ± s.e.m.", "excerpt": "Carried out in the frontal cortex, these tests make it possible, in the case where the products cause an increase in the release of serotonin, to envisage their use for depression, impulsive disorders and obesity. If they cause a decrease in the release of serotonin they will be beneficial in the treatment of anxiety, panic attacks, sleep problems, cognitive problems and drug abuse problems. Finally, if they produce an increase in dopamine and/or noradrenalin, they will be beneficial in the treatment of schizophrenia and, as above, in the treatment of depression and cognitive problems.\nMicrodialysis Experiment in Rats\nThe rats are anaesthetised with pentobarbital (60 mg/kg i.p.). They are placed in a Kopf stereotaxic apparatus and the cannula guide is implanted in the frontal cortex cingulum in accordance with the coordinates described as follows in the Paxinos and Watson atlas (1982): AP:+2.2, L:±0.6, DV:-0.2. The rats are placed in separate cages and are not used in dialysis until 5 days later. On the day of dialysis, the probe is slowly inserted and maintained in its position. […] Simultaneous quantification of dopamine, norepinephrine and serotonin is carried out as follows: 20 μl of dialysis samples are diluted with 20 μl of mobile phase (NaH2 PO4 : 75 mM, EDTA: 20 μM, sodium 1-decanesulphonate: 1 mM, methanol: 17.5%, triethylamine: 0.01%, pH: 5.70) and 33 μl are analysed by HPLC with an inverse phase column (Hypersil ODS 5 μm, C18, 150×4.6 mm, Thermo Separation Products, Les Ulis, France) thermostatically controlled at 45° C. and quantified by way of a coulometric detector. […]\nM±s.e.m.=mean of the effect all times merged after administration of the products±standard error of the mean, and n=number of animals. The quantities of the neurotransmitters are expressed as a function of the mean of the three base values before administration of the products and are defined as 0%. […] The reversion of the decrease of the extracellular concentration of serotonin produced by GR 46611 is evaluated statistically by an analysis of variance with drugs as between factor, F (1,25)=26.5, P<0.01."}, "5HT1B receptor": {"biological_target": "T1, 5HT1B receptor (Cavia porcellus, UniProt O08892)", "T1 construct": "After the dissection of guinea-pig brains, the extracted striata are frozen; from tissue; host or cells: guinea-pig striatum membranes", "T1 sequence (O08892 whole entry)": "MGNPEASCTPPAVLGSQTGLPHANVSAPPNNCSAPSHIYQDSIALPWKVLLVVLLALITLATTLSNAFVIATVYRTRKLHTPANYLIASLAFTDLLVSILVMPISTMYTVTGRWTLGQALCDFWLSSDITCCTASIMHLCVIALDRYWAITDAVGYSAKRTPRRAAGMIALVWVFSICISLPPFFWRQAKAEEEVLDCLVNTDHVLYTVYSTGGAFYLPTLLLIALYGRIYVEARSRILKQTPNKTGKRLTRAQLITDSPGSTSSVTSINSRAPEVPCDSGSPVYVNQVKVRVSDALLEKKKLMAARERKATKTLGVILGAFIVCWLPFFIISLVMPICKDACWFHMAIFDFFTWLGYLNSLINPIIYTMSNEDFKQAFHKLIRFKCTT", "assay": "5-HT1B binding ([3H]-GR 125743, guinea-pig striatal membranes)", "conditions": "[3H]-GR 125743 1 nM, guinea-pig striata membranes; pKi = -log Ki", "procedure": "a) Preparation of the Membranes\nAfter the dissection of guinea-pig brains, the extracted striata are frozen and then homogenised in 20 volumes (weight/volume) of 50 mM tris-HCl (pH 7.7 at room temperature) containing 4 mM CaCl2 and 0.1% ascorbic acid, and centrifuged at 48,000 g for 25 minutes at 4° C. The supernatant is separated and the precipitate is resuspended in the same volume of buffer before being incubated at 37° C. for 15 minutes in order to extract the endogenous serotonin. Finally, the suspension is centrifuged at 48,000 g for 25 minutes at 4° C. and the precipitate is resuspended in 80 volumes of buffer that contains 10 μM pargyline. […]\nThe data are analysed by non-linear regression using the PRISM programme (Graphpad Software Inc., San Diego, Calif.) in order to determine the Kd values (dissocation constant of the radioligand), the Bmax values (maximum number of sites) for the saturation experiments and the IC50 values (50% inhibiting concentration) and the Hill number for the competition experiments. The inhibition constant (Ki) is calculated according to the Cheng-Prussof equation: Ki =IC50 /1+L/Kd wherein L represents the concentration of the radioligand. The results are expressed as pKi =-log Ki."}, "5HT1A receptor": {"biological_target": "T2, 5HT1A receptor (Rattus norvegicus, UniProt P19327)", "T2 sequence (P19327 1-422)": "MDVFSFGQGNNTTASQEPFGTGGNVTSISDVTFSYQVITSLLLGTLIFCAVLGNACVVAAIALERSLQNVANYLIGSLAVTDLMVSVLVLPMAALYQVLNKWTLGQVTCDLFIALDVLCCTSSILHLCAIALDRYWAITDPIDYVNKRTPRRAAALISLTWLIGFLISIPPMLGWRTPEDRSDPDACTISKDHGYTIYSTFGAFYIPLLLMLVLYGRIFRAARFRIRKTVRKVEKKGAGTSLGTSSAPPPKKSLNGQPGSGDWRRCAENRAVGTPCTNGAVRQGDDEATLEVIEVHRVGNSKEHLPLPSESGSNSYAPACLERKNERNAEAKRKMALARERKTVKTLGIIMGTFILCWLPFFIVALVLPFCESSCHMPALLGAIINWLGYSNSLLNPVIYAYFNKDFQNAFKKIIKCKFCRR", "assay": "5HT1A binding", "conditions": "methods known from the literature; read-out: pKi 5HT1A receptor (converted)", "procedure": "The 5HT1A receptor binding studies were carried out according to methods known and described in the literature (cf. S. J. Peroutka, J. Neurochem., 1986, 47, 529-40, M. J. Millan, J. Pharmacol. Exp. Ther., 1994, 268, 337-52). The results are also expressed as pKi. The compounds of the present invention have a very low affinity for the 5HT1A receptor."}}}
{"smiles": "c1ccc2c(c1)CC(NC1CCN(c3cccc4c3OCCO4)CC1)C2", "note": "[Example 1, 1-(2,3-dihydro[1,4]benzodioxin-5-yl)-4-[N-(indan-2-yl)amino]piperidine]", "values": [{"measurement": "ΔT° C. (at 90 minutes)", "setting": "[1]; Product of Example 1 0.04 mg/kg i.p. then GR 46611 5 mg/kg i.p.", "value": "-0.82 ± 0.30", "unit": "°C"}, {"measurement": "ΔT° C. (at 90 minutes)", "setting": "[1]; Product of Example 1 0.16 mg/kg i.p. then GR 46611 5 mg/kg i.p.", "value": "-0.75 ± 0.22", "unit": "°C"}, {"measurement": "agonist or antagonist nature", "setting": "[1]; hypothermia test, i.p.", "value": "acts as an antagonist"}, {"measurement": "extracellular serotonin, mean effect all times merged relative to base values (0%)", "setting": "[2]; Product of Example 1 10.0 mg/kg s.c. + GR 46611 10.0 mg/kg s.c. 20 minutes later", "value": "+0.7 ± 3.4%"}, {"measurement": "extracellular serotonin, mean effect all times merged relative to base values (0%)", "setting": "[2]; Product of Example 1 10.0 mg/kg s.c. + Vehicle", "value": "-9.5 ± 3.7", "unit": "%"}]}
{"smiles": "c1cc2c(c(N3CCC(NC4Cc5cc6c(cc5C4)OCO6)CC3)c1)OCCO2", "note": "[Example 3, 1-(2,3-dihydro[1,4]benzodioxin-5-yl)-4-[N-(5,6-methylenedioxyindan-2-yl)amino]-piperidine]", "values": [{"measurement": "Ki", "setting": "5HT1B receptor", "value": 0.00316, "unit": "µM"}, {"measurement": "Ki", "setting": "5HT1A receptor", "value": 0.631, "unit": "µM"}]}
{"smiles": "COc1ccc(CNC(=O)C=Cc2ccc3[nH]cc(CCN(C)C)c3c2)cc1", "note": "[GR 46611, reference compound]", "values": [{"measurement": "ΔT° C. (at 90 minutes)", "setting": "[1]; Vehicle i.p. then GR 46611 5 mg/kg i.p.", "value": "-1.04 ± 0.15", "unit": "°C"}, {"measurement": "extracellular serotonin, mean effect all times merged relative to base values (0%)", "setting": "[2]; Vehicle + GR 46611 10.0 mg/kg s.c.", "value": "-40.7 ± 2.3", "unit": "%"}]}
